Source: ChEMBL document CHEMBL1156825, “Design, synthesis, and docking studies of novel benzimidazoles for the treatment of metabolic syndrome” (J Med Chem, 2010)
Activity calls are given as the source filed them. No cut-off for these calls is given here.

Experiments:
[1] = target: T1, Type-1 angiotensin II receptor A (Rattus norvegicus, UniProt P25095); assay: Displacement of [125I]SI-Ang2 from AT1 receptor in Sprague-Dawley rat liver membrane; format: cell membranes
T1 sequence (P25095 whole entry): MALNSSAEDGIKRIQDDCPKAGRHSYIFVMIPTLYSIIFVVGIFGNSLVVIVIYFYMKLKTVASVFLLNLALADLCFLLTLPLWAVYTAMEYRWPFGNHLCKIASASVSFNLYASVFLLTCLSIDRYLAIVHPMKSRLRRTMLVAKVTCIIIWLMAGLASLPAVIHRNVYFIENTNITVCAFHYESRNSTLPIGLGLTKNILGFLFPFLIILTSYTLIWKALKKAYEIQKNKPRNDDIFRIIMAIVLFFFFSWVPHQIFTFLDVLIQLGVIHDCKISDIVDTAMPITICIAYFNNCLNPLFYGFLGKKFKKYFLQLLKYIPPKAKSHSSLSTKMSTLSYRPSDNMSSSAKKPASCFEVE

[2] = target: T2, Peroxisome proliferator-activated receptor gamma (Homo sapiens) (UniProt P37231); assay: Agonist activity at human recombinant PPARgamma expressed in CV1 cells coexpressing GAL4 assessed as receptor transactivation at 10 uM by luciferase reporter gene assay relative to full agonist; format: functional, cell-based; conditions: CV-1
T2 sequence (whole entry): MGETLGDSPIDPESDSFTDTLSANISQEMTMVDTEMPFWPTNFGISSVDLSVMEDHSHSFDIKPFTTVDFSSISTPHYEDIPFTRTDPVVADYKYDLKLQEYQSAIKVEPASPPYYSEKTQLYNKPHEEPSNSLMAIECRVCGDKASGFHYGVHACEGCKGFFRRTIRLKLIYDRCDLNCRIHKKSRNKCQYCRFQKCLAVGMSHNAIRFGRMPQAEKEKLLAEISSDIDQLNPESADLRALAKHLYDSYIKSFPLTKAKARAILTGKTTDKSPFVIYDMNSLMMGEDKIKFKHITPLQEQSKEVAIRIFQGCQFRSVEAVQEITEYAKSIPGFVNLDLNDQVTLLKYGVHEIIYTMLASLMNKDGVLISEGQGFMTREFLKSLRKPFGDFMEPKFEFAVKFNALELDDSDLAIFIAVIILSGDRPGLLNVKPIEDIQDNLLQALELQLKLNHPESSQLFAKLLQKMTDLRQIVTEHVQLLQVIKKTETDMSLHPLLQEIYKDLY

[3] = target: T3, Peroxisome proliferator-activated receptor alpha (Homo sapiens) (UniProt Q07869); assay: Agonist activity at PPARalpha assessed as receptor transactivation by reporter gene assay relative to control; format: functional
T3 sequence (whole entry): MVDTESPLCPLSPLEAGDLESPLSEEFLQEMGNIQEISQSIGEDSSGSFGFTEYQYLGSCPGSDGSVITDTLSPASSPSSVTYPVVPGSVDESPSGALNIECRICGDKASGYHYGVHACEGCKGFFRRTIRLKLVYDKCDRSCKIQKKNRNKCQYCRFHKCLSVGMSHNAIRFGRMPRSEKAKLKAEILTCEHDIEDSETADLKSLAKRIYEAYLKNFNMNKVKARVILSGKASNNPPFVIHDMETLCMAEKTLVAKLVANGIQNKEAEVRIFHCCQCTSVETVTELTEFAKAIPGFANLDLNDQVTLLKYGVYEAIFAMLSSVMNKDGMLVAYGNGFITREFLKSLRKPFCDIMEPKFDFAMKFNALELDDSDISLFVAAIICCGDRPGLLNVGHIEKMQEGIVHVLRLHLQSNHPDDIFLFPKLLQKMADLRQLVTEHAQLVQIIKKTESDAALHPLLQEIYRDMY

[4] = target: T4, Peroxisome proliferator-activated receptor alpha (Homo sapiens, UniProt Q07869); assay: Agonist activity at PPARalpha assessed as receptor transactivation by reporter gene assay; format: functional
T4 sequence (Q07869 whole entry): T3 sequence (whole entry)

[5] = target: Peroxisome proliferator-activated receptor alpha (Homo sapiens) (UniProt Q07869); assay: Agonist activity at human recombinant PPARalpha expressed in CV1 cells coexpressing GAL4 assessed as receptor transactivation at 10 µM by luciferase reporter gene assay relative to full agonist; conditions: CV-1

Row | Compound | Ki [1] | Activity [2] | Activity [3] | EC50 [4] | Activity [5]
1 | CCCc1nc2c(C)cccc2n1Cc1ccc(OCC(=O)OCC)cc1 | > 10 µM |  |  |  | 
2 | CCCc1nc2c(C)cccc2n1Cc1ccc(CCc2nnn[nH]2)cc1 | 2.84 µM | inactive |  |  | 
3 | CCCc1nc2c(C)cccc2n1Cc1ccc(OCc2nnn[nH]2)cc1 | 5.06 µM | inactive |  |  | 
4 | CCCc1nc2c(C)cccc2n1Cc1ccc(CCC(=O)OC)cc1 | > 10 µM | 2% |  |  | 
5 | CCCc1nc2c(C)cccc2n1CCOc1ccc(CC(C)(Oc2ccccc2)C(=O)OCC)cc1 (centres undefined) | > 10 µM | 69% | 93% | 0.3 µM | 93%
6 | CCCc1nc2c(C)cc(-c3nc4ccccc4n3C)cc2n1CCOc1ccc(CC(C)(Oc2ccccc2)C(=O)OCC)cc1 (centres undefined) | 2.53 µM | 29% | 15% |  | 15%
7 | CCCc1nc2c(C)cccc2n1CCOc1ccc(CC(C)(C)C(=O)OCC)cc1 | > 10 µM | 10% |  |  | 

Next, values leading:

Row | Ki [1] | Activity [2] | Activity [3] | EC50 [4] | Activity [5] | Compound
8 | > 10 µM | 4% |  |  |  | CCCc1nc2c(C)cccc2n1Cc1ccc(/C=C/C(=O)OCC)cc1
9 | 0.0134 µM | inactive |  |  |  | CCCc1nc2c(C)cc(-c3nc4ccccc4n3C)cc2n1Cc1ccc(CCc2nnn[nH]2)cc1
10 | 2.23 µM | 12% |  |  |  | CCCc1nc2c(C)cc(-c3nc4ccccc4n3C)cc2n1CCOc1ccc(CC(C)(Oc2ccccc2)C(=O)O)cc1 (centres undefined)
11 | 1.62 µM | inactive |  |  |  | CCCc1nc2c(C)cc(-c3nc4ccccc4n3C)cc2n1CCOc1ccc(CCc2nnn[nH]2)cc1
12 |  | 21.9% |  |  |  | CCCc1nc2c(C)cc(-c3nc4ccccc4n3C)cc2n1Cc1ccc(-c2ccccc2C(=O)O)cc1
13 | > 10 µM | 21% |  |  |  | CCCc1nc2c(C)cccc2n1Cc1ccc(OC(C)(C)C(=O)OCC)cc1
